Data as given in paper PMC10850954, “HDAC6/aggresome processing pathway importance for inflammasome formation is context-dependent” (The Journal of Biological Chemistry, 2024).

What was measured:
U937 cells = assay: CTG cell viability assay; type: cell-based, human; settings: U937, broad concentration range, 70 h
Experimental: U937, Jurkat, and HEK293T cells were plated with a density of 10^5 cells/ml, with 50 μl/well in a white 384 well plate (Corning #3570). Two hours after plating, XY-07-035 was dispensed to each well using HPd300e and incubated at 37 °C for 70 h. CellTiter-Glo (CTG) Luminescent Cell Viability Assay (Promega #G7572) was then used to measure cell viability. Aliquoted frozen CTG reagent and cell plates were warmed to room temperature prior to loading. After the plates were cooled to room temperature, the CTG reagent was loaded 15 μl/well with an electronic multichannel pipette. […] The luminescence signal was read over ten cycles for each data point on a PHERAstar FS microplate reader (BMG Labtech). The Relative abundance was calculated as the sum of the averages of duplicate individual 12-point dose-response data points.
Supplementary file mmc1.pdf: Supporting Figure S1 BMDM cells were primed by LPS (1 μg/ml) for 4 hrs and then challenged with 20 μM nigericin. 50 μl supernatant was collected every 15 min (up to 90 min) and mIL-1β level was determined by HTRF assay. […] DARPin F10 was detected by anti-HA antibody. […] Cells were treated with different concentrations of the degrader, and cell viability determined by CTG assay was normalized to the non-treated group. […] Supporting Figure S4: Cell viability was measured by resazurin assay, and fluorescence intensity was a representative of the viability.

HDAC6 = target: T1, HDAC6 (Homo sapiens, UniProt Q9UBN7); assay: HDAC6 degradation in THP-1 cells (immunoblot); type: cell-based; set-up: endogenous in cells; host or cells: PBMCs (with or without LPS priming); settings: non-differentiated and PMA-differentiated THP-1 cells
T1 sequence (Q9UBN7 1-1215): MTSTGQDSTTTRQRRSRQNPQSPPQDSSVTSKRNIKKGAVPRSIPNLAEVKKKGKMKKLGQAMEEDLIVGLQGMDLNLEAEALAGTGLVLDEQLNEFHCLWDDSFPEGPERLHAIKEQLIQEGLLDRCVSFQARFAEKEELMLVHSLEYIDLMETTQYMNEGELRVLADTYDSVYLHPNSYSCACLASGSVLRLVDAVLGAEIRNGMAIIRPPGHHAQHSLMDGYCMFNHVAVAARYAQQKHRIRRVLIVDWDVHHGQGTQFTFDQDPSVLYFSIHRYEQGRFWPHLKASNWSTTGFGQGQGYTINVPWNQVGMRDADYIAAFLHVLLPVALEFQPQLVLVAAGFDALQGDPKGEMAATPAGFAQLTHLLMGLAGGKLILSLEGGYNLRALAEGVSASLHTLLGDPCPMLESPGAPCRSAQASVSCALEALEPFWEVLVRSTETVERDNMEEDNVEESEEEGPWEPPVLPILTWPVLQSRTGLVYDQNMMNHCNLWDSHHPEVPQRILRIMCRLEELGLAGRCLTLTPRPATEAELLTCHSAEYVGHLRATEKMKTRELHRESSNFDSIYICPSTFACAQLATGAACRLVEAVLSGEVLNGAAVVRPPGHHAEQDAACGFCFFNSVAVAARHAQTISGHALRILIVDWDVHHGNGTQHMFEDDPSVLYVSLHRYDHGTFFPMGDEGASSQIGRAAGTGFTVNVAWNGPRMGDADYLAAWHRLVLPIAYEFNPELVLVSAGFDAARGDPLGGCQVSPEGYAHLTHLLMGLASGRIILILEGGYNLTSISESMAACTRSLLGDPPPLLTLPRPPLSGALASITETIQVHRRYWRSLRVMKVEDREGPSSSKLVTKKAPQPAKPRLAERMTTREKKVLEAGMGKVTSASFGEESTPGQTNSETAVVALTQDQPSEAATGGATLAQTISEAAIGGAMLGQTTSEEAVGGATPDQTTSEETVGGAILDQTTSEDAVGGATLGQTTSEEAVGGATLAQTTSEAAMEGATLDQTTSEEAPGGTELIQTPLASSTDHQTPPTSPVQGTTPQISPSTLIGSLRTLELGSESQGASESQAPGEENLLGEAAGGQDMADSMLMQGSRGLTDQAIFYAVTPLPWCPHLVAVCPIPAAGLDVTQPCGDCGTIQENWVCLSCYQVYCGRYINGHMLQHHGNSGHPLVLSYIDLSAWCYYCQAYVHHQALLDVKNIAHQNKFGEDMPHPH

## CN(C(=O)CCCNc1cccc2c1C(=O)N(C1CCC(=O)NC1=O)C2=O)c1ccc(NC(=O)CCCCCCC(=O)NO)cc1 (centres unmarked) [XY-07-35]
U937 cells
  cellular toxicity: does not show cellular toxicity
HDAC6
  HDAC6 degradation: did not lead to HDAC6 degradation
